Measurements reported in patent US20260055102A1 (Redx Pharma Limited, priority 2022, published 2026).

Legend:
[1] = molecular target: Recombinant human DDR2 (aa427-855 containing a GST tag) (Homo sapiens (Human), UniProt Q16832); assay: LanthaScreen Eu Kinase Binding Assay DDR2; conditions: Kinase Tracer 178 10 nM, at least two independent replicates; for IC50: read-out: DDR2 pIC50 (converted)
Method: (§1) DDR1 and DDR2 Biochemical Assay Method The capacity of compounds to bind to DDR1 and DDR2 was quantified using a LanthaScreen Eu Kinase Binding Assay. Recombinant human DDR1 (2.5 nM; aa440-876 containing a GST tag) and DDR2 (1.75 nM; aa427-855 containing a GST tag) were diluted in assay buffer (50 mM HEPES pH7.3, 10 mM MgCl2, 1 mM EGTA and 0.01% Tween) with various concentrations of compound in a 384-well plate and a volume of 5 uL. After a 30-minute incubation at room temperature, 2.5 uL of Eu-anti GST antibody (diluted to 1 nM in assay buffer) plus Kinase Tracer 178 (diluted in assay buffer to 5 nM for DDR1 and 10 nM for DDR2) were added to the plate. Following 60-minute incubation at room temperature, time-resolved fluorescence was measured on a BMG Labtech PHERAstar plate reader. DMSO (1%) and reference compound (1 μM) were used to generate the Max and Min assay signals, respectively. Data was analysed using a four-parameter logistic model to calculate IC50 values, with at least two independent replicates were performed for each compound.

[2] = molecular target: Recombinant human DDR1 (aa440-876 containing a GST tag) (Homo sapiens (Human), UniProt Q08345); assay: LanthaScreen Eu Kinase Binding Assay DDR1; conditions: Kinase Tracer 178 5 nM, at least two independent replicates; for IC50: read-out: DDR1 pIC50 (converted)
Method: as §1

Sequence of Recombinant human DDR2 (aa427-855 containing a GST tag) (Q16832 427-855): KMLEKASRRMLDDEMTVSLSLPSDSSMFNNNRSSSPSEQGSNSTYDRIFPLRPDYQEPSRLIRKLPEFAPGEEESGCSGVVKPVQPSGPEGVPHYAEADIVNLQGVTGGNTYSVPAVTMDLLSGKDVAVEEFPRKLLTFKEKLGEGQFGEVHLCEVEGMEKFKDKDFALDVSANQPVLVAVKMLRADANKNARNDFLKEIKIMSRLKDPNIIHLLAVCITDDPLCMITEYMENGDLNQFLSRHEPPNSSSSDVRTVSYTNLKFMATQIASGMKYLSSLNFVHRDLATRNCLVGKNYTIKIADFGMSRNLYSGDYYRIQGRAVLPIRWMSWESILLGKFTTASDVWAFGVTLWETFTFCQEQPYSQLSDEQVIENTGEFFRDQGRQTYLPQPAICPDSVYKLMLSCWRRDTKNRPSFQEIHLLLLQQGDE
Sequence of Recombinant human DDR1 (aa440-876 containing a GST tag) (Q08345 other isoform, or with tags, fused parts or gaps): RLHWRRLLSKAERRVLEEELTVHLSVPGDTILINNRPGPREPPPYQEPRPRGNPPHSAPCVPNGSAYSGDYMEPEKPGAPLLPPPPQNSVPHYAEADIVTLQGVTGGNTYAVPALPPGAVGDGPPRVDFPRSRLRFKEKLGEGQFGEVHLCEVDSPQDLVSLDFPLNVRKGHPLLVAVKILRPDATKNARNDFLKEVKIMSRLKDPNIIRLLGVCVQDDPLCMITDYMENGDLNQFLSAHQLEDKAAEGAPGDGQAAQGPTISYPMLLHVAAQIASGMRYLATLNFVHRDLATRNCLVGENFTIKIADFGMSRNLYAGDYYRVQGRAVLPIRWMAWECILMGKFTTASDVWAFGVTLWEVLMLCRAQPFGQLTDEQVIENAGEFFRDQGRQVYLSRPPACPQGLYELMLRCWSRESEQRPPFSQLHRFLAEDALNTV

| DDR2 pIC50 [1] | DDR1 pIC50 [2] | IC50 [1] [nM] | IC50 [2] [nM] | SMILES |
| --- | --- | --- | --- | --- |
| D (pIC50≤6) | A (pIC50>8) | – | – | Cn1ncc2c(-c3ccc(-n4c(=O)n(CC(=O)N5CCOC(C(F)(F)F)C5)c5ccccc54)cc3)cncc21 (centres unmarked) [Example 24, 1-[4-(1-methylpyrazolo[3,4-c]pyridin-4-yl)phenyl]-3-[2-oxo-2-[2-(trifluoromethyl)morpholin-4-yl]ethyl]benzimidazol-2-one] |
| – | A (pIC50>8) | 10 to 100 | – | Cc1cccc2c1n(-c1ccc(-c3cncc4c3cnn4C)cc1)c(=O)n2CC(=O)NCC(F)(F)F [Example 6, 2-[4-methyl-3-[4-(1-methylpyrazolo[3,4-c]pyridin-4-yl)phenyl]-2-oxobenzimidazol-1-yl]-N-(2,2,2-trifluoroethyl)acetamide] |
| – | A (pIC50>8) | 10 to 100 | – | Cc1cccc2c1n(-c1ccc(-c3cncc4[nH]ncc34)nc1)c(=O)n2CC(=O)N[C@@H](C)C(F)(F)F [Example 68, 2-[4-methyl-2-oxo-3-[6-(1H-pyrazolo[3,4-c]pyridin-4-yl)-3-pyridyl]benzimidazol-1-yl]-N-[(1S)-2,2,2-trifluoro-1-methyl-ethyl]acetamide] |
| – | – | 100 to 1000 | 10 to 100 | Cc1cc(-c2cncc3c2cnn3C)ncc1-n1c(=O)n(CC(=O)N[C@@H](C)C(F)(F)F)c2cccc(C)c21 [Example 106] |
| – | – | 100 to 1000 | 10 to 100 | Cc1cccc2c1n(-c1ccc(-c3cncc4c3cnn4C)nc1)c(=O)n2CC(=O)N[C@H](C)C(F)(F)F [Example 51, 2-[4-methyl-3-[6-(1-methylpyrazolo[3,4-c]pyridin-4-yl)-3-pyridyl]-2-oxo-benzimidazol-1-yl]-N-[(1R)-2,2,2-trifluoro-1-methyl-ethyl]acetamide] |
| D (pIC50≤6) | A (pIC50>8) | – | – | Cn1ncc2c(-c3ccc(-n4c(=O)n(CC(=O)N5CCC[C@@H](C(F)(F)F)C5)c5ccccc54)cc3)cncc21 [Example 29, 1-[4-(1-methylpyrazolo[3,4-c]pyridin-4-yl)phenyl]-3-[2-oxo-2-[(3R)-3-(trifluoromethyl)-1-piperidyl]ethyl]benzimidazol-2-one] |
| D (pIC50≤6) | A (pIC50>8) | – | – | CC(CC(F)(F)F)NC(=O)Cn1c(=O)n(-c2ccc(-c3cncc4c3cnn4C)cc2)c2ccccc21 (centres unmarked) [Example 28, 2-[3-[4-(1-methylpyrazolo[3,4-c]pyridin-4-yl)phenyl]-2-oxo-benzimidazol-1-yl]-N-(3,3,3-trifluoro-1-methyl-propyl)acetamide] |
| D (pIC50≤6) | – | – | 10 to 100 | Cn1ncc2c(-c3ccc(-n4c(=O)n(CC(=O)NCC(F)(F)F)c5ccccc54)cc3)cncc21 [Example 1, 2-[3-[4-(1-methylpyrazolo[3,4-c]pyridin-4-yl)phenyl]-2-oxobenzimidazol-1-yl]-N-(2,2,2-trifluoroethyl)acetamide] |
| – | A (pIC50>8) | 100 to 1000 | – | Cc1cc(-c2cncc3[nH]ncc23)ccc1-n1c(=O)n(CC(=O)NCC(F)(F)F)c2ccccc21 [Example 14, 2-[3-[2-methyl-4-(1H-pyrazolo[3,4-c]pyridin-4-yl)phenyl]-2-oxobenzimidazol-1-yl]-N-(2,2,2-trifluoroethyl)acetamide] |
| – | A (pIC50>8) | 100 to 1000 | – | Cn1ncc2c(-c3ccc(-n4c(=O)n(CC(=O)N5CCC[C@H]5C(F)(F)F)c5ccccc54)cn3)cncc21 [Example 65, 1-[6-(1-methylpyrazolo[3,4-c]pyridin-4-yl)-3-pyridyl]-3-[2-oxo-2-[(2S)-2-(trifluoromethyl)pyrrolidin-1-yl]ethyl]benzimidazol-2-one] |
| D (pIC50≤6) | D (pIC50≤6) | – | – | Cc1nc(-c2cncc3[nH]nc(C)c23)cnc1-n1c(=O)n(CC(=O)NCC(F)(F)F)c2cccc(C)c21 [Example 104, 2-[4-methyl-3-[3-methyl-5-(3-methyl-1H-pyrazolo[3,4-c]pyridin-4-yl)pyrazin-2-yl]-2-oxo-benzimidazol-1-yl]-N-(2,2,2-trifluoroethyl)acetamide] |
| – | A (pIC50>8) | 100 to 1000 | – | Cn1ncc2c(-c3ccc(-n4c(=O)n(CC(=O)N5CCC[C@H]5C(F)(F)F)c5ccccc54)cc3)cncc21 [Example 2, 1-[4-(1-methylpyrazolo[3,4-c]pyridin-4-yl)phenyl]-3-[2-oxo-2-[(2S)-2-(trifluoromethyl)pyrrolidin-1-yl]ethyl]benzimidazol-2-one] |
| D (pIC50≤6) | D (pIC50≤6) | – | – | Cn1ncc2c(-c3ccc(-n4c(=O)n(CC(=O)N5CC(F)(F)C5)c5ccccc54)cc3)cncc21 [Example 35, 1-[2-(3,3-difluoroazetidin-1-yl)-2-oxoethyl]-3-[4-(1-methylpyrazolo[3,4-c]pyridin-4-yl)phenyl]benzimidazol-2-one] |
| – | – | 100 to 1000 | 10 to 100 | Cc1nc(-c2cncc3c2cnn3C)ccc1-n1c(=O)n(CC(=O)N[C@@H](C)C(F)(F)F)c2cccc(C)c21 [Example 113] |
| – | A (pIC50>8) | 100 to 1000 | – | Cc1cc(-c2cncc3c2cnn3C)ccc1-n1c(=O)n(CC(=O)NCC(F)(F)F)c2cccc(Cl)c21 [Example 83, 2-[4-chloro-3-[2-methyl-4-(1-methylpyrazolo[3,4-c]pyridin-4-yl)phenyl]-2-oxo-benzimidazol-1-yl]-N-(2,2,2-trifluoroethyl)acetamide] |
| D (pIC50≤6) | D (pIC50≤6) | – | – | Cn1ncc2c(-c3ccc(-n4c(=O)n(CC(=O)N5CCOCC5)c5ccccc54)cc3)cncc21 [Example 22, 1-[4-(1-methylpyrazolo[3,4-c]pyridin-4-yl)phenyl]-3-(2-morpholino-2-oxoethyl)benzimidazol-2-one] |
| D (pIC50≤6) | – | – | 100 to 1000 | Cc1cccc2c1n(-c1ncc(-c3cncc4[nH]ncc34)cn1)c(=O)n2CC(=O)N[C@H](C)C(F)(F)F [Example 98, 2-[4-methyl-2-oxo-3-[5-(1H-pyrazolo[3,4-c]pyridin-4-yl)pyrimidin-2-yl]benzimidazol-1-yl]-N-[(1R)-2,2,2-trifluoro-1-methyl-ethyl]acetamide] |
| – | – | 100 to 1000 | 10 to 100 | Cc1cccc2c1n(-c1ccc(-c3cncc4c3cnn4C)cn1)c(=O)n2CC(=O)NCC(F)(F)F [Example 58] |
| D (pIC50≤6) | – | – | 100 to 1000 | Cc1cc(-n2c(=O)n(CC(=O)NCC(F)(F)F)c3cccc(C)c32)cnc1-c1cncc2[nH]ncc12 [Example 99, 2-[4-methyl-3-[5-methyl-6-(1H-pyrazolo[3,4-c]pyridin-4-yl)-3-pyridyl]-2-oxo-benzimidazol-1-yl]-N-(2,2,2-trifluoroethyl)acetamide] |
| – | A (pIC50>8) | 10 to 100 | – | Cc1nc(-c2cncc3[nH]ncc23)ccc1-n1c(=O)n(CC(=O)NCC(F)(F)F)c2cccc(C)c21 [Example 94, 2-[4-methyl-3-[2-methyl-6-(1H-pyrazolo[3,4-c]pyridin-4-yl)-3-pyridyl]-2-oxo-benzimidazol-1-yl]-N-(2,2,2-trifluoroethyl)acetamide] |
| D (pIC50≤6) | D (pIC50≤6) | – | – | Cc1cc(-n2c(=O)n(CC(=O)NCC(F)(F)F)c3ccccc32)ccc1-c1cncc2c1cnn2C [Example 5, 2-[3-[3-methyl-4-(1-methylpyrazolo[3,4-c]pyridin-4-yl)phenyl]-2-oxobenzimidazol-1-yl]-N-(2,2,2-trifluoroethyl)acetamide] |
| D (pIC50≤6) | A (pIC50>8) | – | – | Cn1ncc2c(-c3ccc(-n4c(=O)n(CC(=O)N5CCCC(C(F)(F)F)C5)c5ccccc54)cc3)cncc21 (centres unmarked) [Example 23, 1-[4-(1-methylpyrazolo[3,4-c]pyridin-4-yl)phenyl]-3-[2-oxo-2-[3-(trifluoromethyl)-1-piperidyl]ethyl]benzimidazol-2-one] |
| – | A (pIC50>8) | 100 to 1000 | – | Cc1cccc2c1n(-c1ccc(-c3cncc4[nH]ncc34)cn1)c(=O)n2CC(=O)NCC(F)(F)F [Example 72, 2-[4-methyl-2-oxo-3-[5-(1H-pyrazolo[3,4-c]pyridin-4-yl)-2-pyridyl]benzimidazol-1-yl]-N-(2,2,2-trifluoroethyl)acetamide] |
| – | – | 100 to 1000 | 10 to 100 | Cc1cccc2c1n(-c1cnc(-c3cncc4c3cnn4C)nc1)c(=O)n2CC(=O)NCC(F)(F)F [Example 75, 2-[4-methyl-3-[2-(1-methylpyrazolo[3,4-c]pyridin-4-yl)pyrimidin-5-yl]-2-oxo-benzimidazol-1-yl]-N-(2,2,2-trifluoroethyl)acetamide] |
| – | – | 100 to 1000 | 10 to 100 | Cc1cccc2c1n(-c1ccc(-c3cncc4c3cnn4C)cn1)c(=O)n2CC(=O)N1CCO[C@@H](C(F)(F)F)C1 [Example 60, 4-methyl-3-[5-(1-methylpyrazolo[3,4-c]pyridin-4-yl)-2-pyridyl]-1-[2-oxo-2-[(2R)-2-(trifluoromethyl)morpholin-4-yl]ethyl]benzimidazol-2-one] |
